# Experimental data: US20240041042A1, “1-(PYRIDYL)-5-AZINYLPYRAZOLE DERIVATIVES, AND THEIR USE FOR CONTROL OF UNDESIRED PLANT GROWTH” (Bayer Aktiengesellschaft, priority 2020, published 2024)
# Like-named read-outs stand apart in the source and are kept apart here.
# Experiments:
# Assay type in all cases: in vivo
# Oryza sativa (ORYSA) [1] = conditions: pre-emergence, crop plant compatibility, in comparison to untreated controls
# Outline: (§1)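 Crop injury rated visually in percent against untreated plants roughly 3 weeks after treatment (0% no effect, 100% plants dead). Compounds, as WP or EC with 0.5% additive in 600 l/ha water, were applied to the covering soil right after sowing; greenhouse growth. Suffixes a, b, c denote different dosages.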
# Glycine max (GLXMA) = conditions: pre-emergence, 80 g/ha, crop plant compatibility, in comparison to untreated controls
# Outline: as §1
# Zea mays (ZEAMX) [2] = conditions: pre-emergence, crop plant compatibility, in comparison to untreated controls
# Outline: as §1
# Brassica napus (BRSNW) = conditions: crop plant compatibility, in comparison to untreated controls
# Outline: as §1
# [3] = tested on: Triticum aestivum (TRZAS); conditions: crop plant compatibility, 80 g/ha, effect vs untreated controls
# Outline: (§2)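 Effects were read visually as % versus untreated controls (0% = no effect, 100% = death) about 3 weeks post-treatment. Application was a post-emergence spray at the one-leaf stage of WP/EC formulations with 0.5% additive at 600 l/ha. Different dosages are denoted a, b and c.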
# Oryza sativa (ORYSA) [4] = conditions: crop plant compatibility
# Outline: as §2
# Zea mays (ZEAMX) [5] = conditions: crop plant compatibility, effect vs untreated controls
# Outline: as §2
# [6] = tested on: Amaranthus retroflexus (AMARE); assay: Post-emergence herbicidal action against AMARE; conditions: 320 g/ha, visual rating about 3 weeks after treatment
# Outline: (§3)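 Post-emergence greenhouse spray, one-leaf stage, 600 l/ha water plus 0.5% additive; WP or EC formulations; application rates 320 g/ha or lower. Visual % damage vs untreated controls at ~3 weeks.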
# [7] = tested on: Pharbitis purpurea (PHBPU); assay: Post-emergence herbicidal action against PHBPU
# Outline: as §3
# Setaria viridis (SETVI) [8] = assay: Post-emergence herbicidal action against SETVI; conditions: dosage 320 g/ha
# Outline: as §3
# Lolium rigidum (LOLRI) [9] = assay: Post-emergence herbicidal action against LOLRI; conditions: dosage 320 g/ha
# Outline: as §3
# [10] = tested on: Alopecurus myosuroides (ALOMY); assay: Pre-emergence herbicidal action against ALOMY; conditions: 320 g/ha; scored visually after about 3 weeks; 100% = plants have died
# Outline: (§4)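 Dosages of 320 g/ha or less; pre-emergence; WP or EC in aqueous spray, 0.5% additive, 600 l/ha; greenhouse; visual % effect after ~3 wk relative to control pots.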
# [11] = tested on: Triticum aestivum (TRZAS); conditions: pre-emergence, 80 g/ha, crop plant compatibility, in comparison to untreated controls
# Outline: as §1
# [12] = tested on: Polygonum convolvulus (POLCO); assay: Post-emergence herbicidal action against POLCO
# Outline: as §3
# [13] = tested on: Matricaria inodora (MATIN); assay: Pre-emergence herbicidal action against MATIN
# Outline: as §4
# [14] = tested on: Polygonum convolvulus (POLCO); assay: Pre-emergence herbicidal action against POLCO; conditions: dosage 320 g/ha
# Outline: as §4
# [15] = tested on: Amaranthus retroflexus (AMARE); assay: Pre-emergence herbicidal action against AMARE; conditions: 320 g/ha, visual scoring after about 3 weeks vs untreated controls
# Outline: as §4
# Lolium rigidum (LOLRI) [16] = assay: Pre-emergence herbicidal action against LOLRI; conditions: dosage 320 g/ha
# Outline: as §4
# [17] = tested on: Echinochloa crus-galli (ECHCG); assay: Pre-emergence herbicidal action against ECHCG; conditions: dosage 320 g/ha
# Outline: as §4
# [18] = tested on: Echinochloa crus-galli (ECHCG); assay: Post-emergence herbicidal action against ECHCG
# Outline: as §3
# Setaria viridis (SETVI) [19] = assay: Pre-emergence herbicidal action against SETVI; conditions: dosage 320 g/ha
# Outline: as §4
# Avena fatua (AVEFA) [20] = assay: Post-emergence herbicidal action against AVEFA; conditions: 320 g/ha, visual rating about 3 weeks after treatment
# Outline: as §3
# [21] = tested on: Verconica persica (VERPE); assay: Pre-emergence herbicidal action against VERPE; conditions: dosage 320 g/ha
# Outline: as §4
# Viola tricolor (VIOTR) [22] = assay: Pre-emergence herbicidal action against VIOTR
# Outline: as §4
# [23] = tested on: Digitaria sanguinalis (DIGSA); assay: Post-emergence herbicidal action against DIGSA; conditions: 320 g/ha, visual rating about 3 weeks after treatment
# Outline: as §3
# [24] = tested on: Digitaria sanguinalis (DIGSA); assay: Pre-emergence herbicidal action against DIGSA; conditions: dosage 320 g/ha
# Outline: as §4
# [25] = tested on: Alopecurus myosuroides (ALOMY); assay: Post-emergence herbicidal action against ALOMY; conditions: 320 g/ha, visual rating about 3 weeks after treatment vs untreated controls (100% = plants have died, 0% = like control plants)
# Outline: as §3
# Viola tricolor (VIOTR) [26] = assay: Post-emergence herbicidal action against VIOTR
# Outline: as §3
# Avena fatua (AVEFA) [27] = assay: Pre-emergence herbicidal action against AVEFA; conditions: 320 g/ha, visual scoring after about 3 weeks vs untreated controls
# Outline: as §4
# [28] = 80 g/ha, effect in comparison to untreated controls
# [29] = 320 g/ha, effect in comparison to untreated controls
SMILES,Pre-emergence action against ORYSA in % (Oryza sativa (ORYSA) [1]; 80 g/ha) [%],Pre-emergence action against ORYSA in % (Oryza sativa (ORYSA) [1]; 320 g/ha) [%],Pre-emergence action against GLXMA in % (Glycine max (GLXMA)) [%],Pre-emergence action against ZEAMX in % (Zea mays (ZEAMX) [2]; 80 g/ha) [%],Pre-emergence action against ZEAMX in % (Zea mays (ZEAMX) [2]; 320 g/ha) [%],Pre-emergence action against BRSNW in % (Brassica napus (BRSNW); 80 g/ha) [%],Post-emergence action against TRZAS in % [3] [%],Post-emergence action against ORYSA in % (Oryza sativa (ORYSA) [4]; [28]) [%],Post-emergence action against ORYSA in % (Oryza sativa (ORYSA) [4]; [29]) [%],Post-emergence action against ZEAMX in % (Zea mays (ZEAMX) [5]; 80 g/ha) [%],Post-emergence action against ZEAMX in % (Zea mays (ZEAMX) [5]; 320 g/ha) [%],Post-emergence action against AMARE in % [6] [%],Post-emergence action against PHBPU in % ([7]; dosage 320 g/ha) [%],Post-emergence action against LOLRI in % (Lolium rigidum (LOLRI) [9]) [%],Pre-emergence action against ALOMY [10] [%],Pre-emergence action against POLCO in % [14] [%],Pre-emergence action against AMARE in % [15] [%],Pre-emergence action against LOLRI in % (Lolium rigidum (LOLRI) [16]) [%],Post-emergence action against AVEFA in % (Avena fatua (AVEFA) [20]) [%],"Pre-emergence action against VIOTR in % (Viola tricolor (VIOTR) [22]; 320 g/ha, Viola tricolor) [%]",further results
CCOC(=O)COc1nn(-c2ncccc2OC)c(-c2ccc(F)nc2)c1Br [Example I-371],0,0,20,0,10,0,20,0,0,20,20,80,80,90,,,,,,,Pre-emergence action against BRSNW in % (Brassica napus (BRSNW); 320 g/ha): 20%; Post-emergence action against SETVI in % (Setaria viridis (SETVI) [8]): 80%
COC(=O)CNC(=O)CSc1nn(-c2ccccn2)c(-c2cncnc2)c1Br [Example I-65],,,20,,,20,,0,0,,,80,,,80,90,90,90,80,100,Pre-emergence action against TRZAS in % [11]: 20%; Post-emergence action against POLCO in % ([12]; dosage 320 g/ha): 80%; Pre-emergence action against MATIN in % ([13]; dosage 80 g/ha): 80%; Pre-emergence action against MATIN in % ([13]; dosage 320 g/ha): 90%; Pre-emergence action against ECHCG in % [17]: 90%; Post-emergence action against ECHCG in % ([18]; dosage 80 g/ha): 80%; Post-emergence action against ECHCG in % ([18]; dosage 320 g/ha): 80%; Pre-emergence action against SETVI in % (Setaria viridis (SETVI) [19]): 90%; Pre-emergence action against VERPE in % [21]: 80%; Post-emergence action against SETVI in % (Setaria viridis (SETVI) [8]): 80%
COc1cccnc1-n1nc(OCC(=O)O)c(Cl)c1-c1ccc(F)nc1 [Example I-329],0,20,0,0,10,0,0,0,0,0,0,,80,,,,,,,,
COC(=O)[C@@H](C)Oc1nn(-c2ccccn2)c(-c2ccc(Cl)nc2)c1Br [Example I-242],,,0,0,,20,,0,0,10,,80,80,80,80,80,100,90,80,100,Post-emergence action against POLCO in % ([12]; dosage 80 g/ha): 80%; Post-emergence action against POLCO in % ([12]; dosage 320 g/ha): 80%; Post-emergence action against DIGSA in % [23]: 80%; Pre-emergence action against DIGSA in % [24]: 90%; Post-emergence action against ALOMY in % [25]: 80%; Post-emergence action against VIOTR in % (Viola tricolor (VIOTR) [26]; 80 g/ha): 80%; Post-emergence action against VIOTR in % (Viola tricolor (VIOTR) [26]; 320 g/ha): 80%; Post-emergence action against PHBPU in % ([7]; dosage 80 g/ha): 80%
CCOC(=O)C(C)Oc1nn(-c2ccccn2)c(-c2ccc(F)nc2)c1Br (racemic) [Example I-58],0,,0,20,,0,,0,,20,,,80,80,90,90,,80,90,80,Post-emergence action against ALOMY in % [25]: 90%; Post-emergence action against ECHCG in % ([18]; dosage 320 g/ha): 80%; Pre-emergence action against AVEFA in % (Avena fatua (AVEFA) [27]): 80%
COC(=O)[C@@H](C)Oc1nn(-c2cccnc2F)c(-c2ccc(F)nc2)c1Br [II-36],0,,0,20,,0,,0,,,,,,,100,,100,80,,100,"Pre-emergence action against DIGSA in % [24]: 100%; Post-emergence action against ORYSA in % (Oryza sativa (ORYSA) [4]; 20 g/ha, effect vs untreated controls): 0%; Post-emergence action against VIOTR in % (Viola tricolor (VIOTR) [26]; 80 g/ha): 80%; Pre-emergence action against SETVI in % (Setaria viridis (SETVI) [19]): 80%; Pre-emergence action against VERPE in % [21]: 80%; Pre-emergence action against AVEFA in % (Avena fatua (AVEFA) [27]): 80%; Pre-emergence action against VIOTR in % (Viola tricolor (VIOTR) [22]; dosage 80 g/ha): 80%"
